Values joined by “and” are separate entries in the source; they are usually repeats but may differ in a detail not shown here. Equal values may be shown once. Toxic doses and inconclusive results are not listed. No stated cut-off is given here; in the data, active means T/C of 150% or more; inactive means T/C below 125%.
Tested on: L1210 leukemia ip in BDF1 mice, survival T/C
Test: NCI In Vivo Anticancer Drug Screen. Data for tumor model L1210 Leukemia (intraperitoneal) in B6D2F1 (BDF1) mice
Conditions: endpoint: mean survival time, higher = longer survival
Method in brief: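 Tumor cells were implanted, animals were treated, and survival was followed. The result divides the treated measurement by the vehicle-control measurement.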

[1] = dose: 100.0 mg/kg/injection, schedule: Q01DX009 (ip), vehicle: saline
[2] = dose: 100.0 mg/kg/injection, schedule: Q04DX003 (ip), vehicle: Klucel (hydroxypropylcellulose) (HPC)
[3] = dose: 200.0 mg/kg/injection, schedule: Q01DX009 (ip), vehicle: saline
[4] = dose: 200.0 mg/kg/injection, schedule: Q04DX003 (ip), vehicle: Klucel (hydroxypropylcellulose) (HPC)
[5] = dose: 400.0 mg/kg/injection, schedule: Q04DX003 (ip), vehicle: Klucel (hydroxypropylcellulose) (HPC)
[6] = dose: 75.0 mg/kg/injection, schedule: Q01DX001 (ip), vehicle: other
[7] = dose: 100.0 mg/kg/injection, schedule: Q04DX003 (ip), vehicle: saline
[8] = dose: 200.0 mg/kg/injection, schedule: Q04DX003 (ip), vehicle: saline
[9] = dose: 400.0 mg/kg/injection, schedule: Q01DX009 (ip), vehicle: saline
[10] = dose: 400.0 mg/kg/injection, schedule: Q04DX003 (ip), vehicle: saline
[11] = dose: 100.0 mg/kg/injection, schedule: Q01DX009 (ip), vehicle: Klucel (hydroxypropylcellulose) (HPC)
[12] = dose: 200.0 mg/kg/injection, schedule: Q01DX009 (ip), vehicle: Klucel (hydroxypropylcellulose) (HPC)
[13] = dose: 400.0 mg/kg/injection, schedule: Q01DX009 (ip), vehicle: Klucel (hydroxypropylcellulose) (HPC)

Measured: T/C

O=C(Nc1cc(NC(=O)Nc2cccc(C3=NCCN3)c2)cc(C(=O)O)c1)Nc1cccc(C2=NCCN2)c1
inactive: dose: 15.0 mg/kg/injection, schedule: Q01DX Z (ip), vehicle: carboxymethylcellulose (CMC) 96 % of control | dose: 30.0 mg/kg/injection, schedule: Q01DX Z (ip), vehicle: carboxymethylcellulose (CMC) 96 % of control | dose: 60.0 mg/kg/injection, schedule: Q01DX Z (ip), vehicle: carboxymethylcellulose (CMC) 94 % of control | dose: 120.0 mg/kg/injection, schedule: Q01DX Z (ip), vehicle: carboxymethylcellulose (CMC) 100 % of control and 106 % of control | dose: 240.0 mg/kg/injection, schedule: Q01DX Z (ip), vehicle: carboxymethylcellulose (CMC) 104 % of control

COc1cccc(CCNC(=O)CC#N)c1OC
inactive: [1] 90 % of control | [2] 100 % of control | [3] 95 % of control | [4] 102 % of control | [5] 97 % of control

O=CC(O)C(O)C(OC1OC(CO)C(O)C(O)C1O)C(O)CO (centres undefined)
inactive: dose: 100.0 mg/kg/injection, schedule: Q04DX002 (ip), vehicle: carboxymethylcellulose (CMC) 93 % of control and 117 % of control | dose: 100.0 mg/kg/injection, schedule: Q04DX003 (ip), vehicle: carboxymethylcellulose (CMC) 99 % of control | dose: 200.0 mg/kg/injection, schedule: Q04DX002 (ip), vehicle: carboxymethylcellulose (CMC) 93 % of control and 92 % of control | dose: 200.0 mg/kg/injection, schedule: Q04DX003 (ip), vehicle: carboxymethylcellulose (CMC) 96 % of control | dose: 400.0 mg/kg/injection, schedule: Q04DX002 (ip), vehicle: carboxymethylcellulose (CMC) 100 % of control and 86 % of control | dose: 400.0 mg/kg/injection, schedule: Q04DX003 (ip), vehicle: carboxymethylcellulose (CMC) 87 % of control

O=C1NC(=S)S/C1=C\c1c(Cl)cccc1Cl
inactive: [6] 97 % of control

O=C(O)c1ccc(C(=O)c2ccccc2C(=O)O)cc1
inactive: [1] 105 % of control | [7] 102 % of control | [3] 106 % of control | [8] 112 % of control | [9] 105 % of control | [10] 101 % of control

CCCCN(C)/N=N\c1[nH]ncc1C(N)=O
inactive: dose: 8.5 mg/kg/injection, schedule: Q01DX009 (ip), vehicle: saline with Tween-80 119 % of control | dose: 13.0 mg/kg/injection, schedule: Q01DX009 (ip), vehicle: saline with Tween-80 104 % of control | dose: 16.25 mg/kg/injection, schedule: Q01DX009 (ip), vehicle: saline with Tween-80 115 % of control | dose: 20.0 mg/kg/injection, schedule: Q01DX009 (ip), vehicle: saline with Tween-80 115 % of control | dose: 30.5 mg/kg/injection, schedule: Q04DX003 (ip), vehicle: saline with Tween-80 100 % of control | dose: 61.0 mg/kg/injection, schedule: Q04DX003 (ip), vehicle: saline with Tween-80 108 % of control | dose: 77.25 mg/kg/injection, schedule: Q01DX001 (ip), vehicle: saline with Tween-80 106 % of control | dose: 122.0 mg/kg/injection, schedule: Q04DX003 (ip), vehicle: saline with Tween-80 119 % of control | dose: 150.0 mg/kg/injection, schedule: Q01DX009 (ip), vehicle: other 114 % of control | dose: 154.5 mg/kg/injection, schedule: Q01DX001 (ip), vehicle: saline with Tween-80 117 % of control | dose: 309.0 mg/kg/injection, schedule: Q01DX001 (ip), vehicle: saline with Tween-80 114 % of control
active: dose: 44.0 mg/kg/injection, schedule: Q01DX009 (ip), vehicle: other 165 % of control | dose: 65.0 mg/kg/injection, schedule: Q01DX009 (ip), vehicle: saline with Tween-80 157 % of control | dose: 66.0 mg/kg/injection, schedule: Q01DX009 (ip), vehicle: other 184 % of control

c1ccc(-c2cc3ccccc3[nH]2)nc1
inactive: [2] 95 % of control | [4] 93 % of control | [5] 93 % of control

CC(=O)CCCN(CCO)CCO
inactive: [1] 88 % of control | [7] 96 % of control | [3] 92 % of control | [8] 96 % of control | [9] 96 % of control | [10] 102 % of control

Cc1cc(O)c(C(C)C)cc1NC(=O)C(Cl)Cl
inactive: [2] 98 % of control | [4] 101 % of control | [5] 107 % of control

CC1=C(C(=O)O)C(c2ccccc2)CC(=O)N1 (centres undefined)
inactive: dose: 50.0 mg/kg/injection, schedule: Q01DX001 (ip), vehicle: carboxymethylcellulose (CMC) 96 % of control | dose: 100.0 mg/kg/injection, schedule: Q01DX001 (ip), vehicle: carboxymethylcellulose (CMC) 104 % of control | dose: 200.0 mg/kg/injection, schedule: Q01DX001 (ip), vehicle: carboxymethylcellulose (CMC) 98 % of control | dose: 400.0 mg/kg/injection, schedule: Q01DX001 (ip), vehicle: carboxymethylcellulose (CMC) 98 % of control

Cc1cc(=O)n(-c2ccccc2)cn1
inactive: [2] 98 % of control | [4] 89 % of control | [5] 96 % of control

CCN(CC)CCCC(C)NC/C=C/CNC(C)CCCN(CC)CC (centres undefined)
inactive: dose: 0.78 mg/kg/injection, schedule: Q01DX009 (ip), vehicle: water 104 % of control | dose: 6.25 mg/kg/injection, schedule: Q04DX003 (ip), vehicle: water 105 % of control | dose: 12.5 mg/kg/injection, schedule: Q04DX003 (ip), vehicle: water 92 % of control | dose: 25.0 mg/kg/injection, schedule: Q01DX009 (ip), vehicle: water 104 % of control | dose: 25.0 mg/kg/injection, schedule: Q04DX003 (ip), vehicle: water 103 % of control

NC(CCl)=NCCOC12CC3CC(CC(C3)C1)C2
inactive: dose: 25.0 mg/kg/injection, schedule: Q04DX002 (ip), vehicle: saline 94 % of control | dose: 50.0 mg/kg/injection, schedule: Q04DX002 (ip), vehicle: saline 112 % of control | dose: 100.0 mg/kg/injection, schedule: Q04DX002 (ip), vehicle: saline 96 % of control and 87 % of control

O=C(NC(CSC(c1ccccc1)(c1ccccc1)c1ccccc1)C(=O)O)OCc1ccccc1 (centres undefined)
inactive: [7] 105 % of control | [8] 100 % of control | [10] 105 % of control

Cc1ccc(Nc2ccc([N+](=O)[O-])cc2[N+](=O)[O-])cc1C
inactive: dose: 50.0 mg/kg/injection, schedule: Q04DX003 (ip), vehicle: Klucel (hydroxypropylcellulose) (HPC) 102 % of control | [11] 108 % of control | [2] 102 % of control | [12] 90 % of control | [4] 98 % of control and 104 % of control | [13] 97 % of control | [5] 89 % of control

CCOC(=O)c1cnc(SC)nc1Nc1ccccc1C
inactive: [11] 96 % of control | [2] 97 % of control | [12] 93 % of control | [4] 98 % of control | [13] 91 % of control | [5] 98 % of control

C=CCO[Si](C=C)(OCC=C)OCC=C
inactive: [6] 116 % of control | dose: 150.0 mg/kg/injection, schedule: Q01DX001 (ip), vehicle: other 95 % of control | dose: 300.0 mg/kg/injection, schedule: Q01DX001 (ip), vehicle: other 94 % of control

O=[N+]([O-])c1cc(S(=O)(=O)F)cc(Cl)c1S
inactive: [2] 98 % of control | [4] 102 % of control

NCCP(=O)(O)c1ccccc1
inactive: dose: 100.0 mg/kg/injection, schedule: Q01DX001 (ip), vehicle: saline 94 % of control | dose: 200.0 mg/kg/injection, schedule: Q01DX001 (ip), vehicle: saline 93 % of control | dose: 400.0 mg/kg/injection, schedule: Q01DX001 (ip), vehicle: saline 93 % of control

CC(=O)Nc1ccc(Cc2[nH]c(=O)[nH]c(=O)c2Br)cc1
inactive: dose: 100.0 mg/kg/injection, schedule: Q01DX001 (ip), vehicle: Klucel (hydroxypropylcellulose) (HPC) 93 % of control | dose: 200.0 mg/kg/injection, schedule: Q01DX001 (ip), vehicle: Klucel (hydroxypropylcellulose) (HPC) 93 % of control

CC/C=C(/C)C(C#N)(C(=O)O)C(C)C (centres undefined)
inactive: dose: 75.0 mg/kg/injection, schedule: Q01DX001 (ip), vehicle: saline 98 % of control | dose: 150.0 mg/kg/injection, schedule: Q01DX001 (ip), vehicle: saline 104 % of control | dose: 300.0 mg/kg/injection, schedule: Q01DX001 (ip), vehicle: saline 94 % of control

Cc1ccc(Nc2nnc(N=Nc3ccccc3)s2)cc1C
inactive: dose: 100.0 mg/kg/injection, schedule: Q01DX009 (ip), vehicle: other 101 % of control | dose: 200.0 mg/kg/injection, schedule: Q01DX009 (ip), vehicle: other 98 % of control | dose: 400.0 mg/kg/injection, schedule: Q01DX009 (ip), vehicle: other 98 % of control

CCN(CC)CCN1CC(=O)Nc2cc(Cl)ccc21
inactive: dose: 25.0 mg/kg/injection, schedule: Q04DX003 (ip), vehicle: saline 94 % of control | dose: 50.0 mg/kg/injection, schedule: Q04DX003 (ip), vehicle: saline 99 % of control | [7] 98 % of control and 87 % of control

From PubChem BioAssay AID248 (DTP/NCI, 2004)
